Where two headings read alike, the source gives them in different places.
Assays:
[1] = tested on: Gram-negative bacteria (Enterobacterales, Pseudomonas, Acinetobacter); conditions: for RM R (strains resistant by reference method) / RM S (strains susceptible by reference method) / RM I (strains intermediate by reference method): total of 3 sites, blood cultures; for CLSI RM R / EUCAST RM R: number of strains resistant; for CLSI RM S / EUCAST RM S: number of strains susceptible; for CLSI RM I: number of strains I
Procedure: (§1) For Colistin (on gram-negative bacteria) and vancomycin (in the case of Staphylococcus), the method used to determine the antimicrobial susceptibility was broth microdilution [5]. […] Standard methodologies were performed from the same inoculum used to spike the blood cultures. Quality control of the reference methods was also performed according to the recommendations of EUCAST and CLSI.
(§2) All the strains were classified as S, I or R according the reference methods. MIC was determined for vancomycin and colistin. The presence of ESBL on Enterobacterales group I, together with the screening for ESBL on Enterobacterales group II, and the screening for AmpC and presence of carbapenemases according EUCAST protocol for detection of mechanisms of resistance were also performed.
(§3) Positive blood cultures were spiked in blood agar and colonies identified and submitted to antimicrobial susceptibility assay according reference disk diffusion method and/or to MIC values determined by microdilution. The results were analysed using the most recent EUCAST breakpoint tables and the M100 (29th ed.) breakpoint tables from CLSI.

[2] = tested on: Gram-positive bacteria (Staphylococcus spp, Enterococcus spp); assay: Reference method (RM): disk diffusion and/or broth microdilution, S/I/R classification, Gram-positive strains; format: cell-based; conditions: for EUCAST RM I: number of strains I; for CLSI RM R / EUCAST RM R: number of strains resistant; for CLSI RM S / EUCAST RM S: number of strains susceptible;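 on all read-outs here: susceptibility categories assigned with the latest EUCAST breakpoint tables or CLSI M100 29th edition breakpoints, with quality control of the reference methods following EUCAST and CLSI guidance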
Procedure: as §1, §2, §3

[3] = CLSI, FASTinov, Porto, spiked on blood cultures
[4] = CLSI, Hospital Ramon et Cajal, Madrid, patients' blood cultures
[5] = CLSI, Hospital S. João, Porto, patients' blood cultures
[6] = EUCAST, FASTinov, Porto, spiked on blood cultures
[7] = EUCAST, Hospital Ramon et Cajal, Madrid, patients' blood cultures
[8] = EUCAST, Hospital S. João, Porto, patients' blood cultures
[9] = CLSI, FASTinov, Porto, spiked blood cultures
[10] = CLSI, total of 3 sites, blood cultures
[11] = EUCAST, FASTinov, Porto, spiked blood cultures
[12] = EUCAST, total of 3 sites, blood cultures
[13] = EUCAST, Hospital Ramon et Cajal, Madrid, patients blood cultures
[14] = CLSI, Hospital Ramon et Cajal, Madrid, patients blood cultures

Molecule: NCC[C@H](O)C(=O)N[C@@H]1C[C@H](N)[C@@H](O[C@H]2O[C@H](CN)[C@@H](O)[C@H](O)[C@H]2O)[C@H](O)[C@H]1O[C@H]1O[C@H](CO)[C@@H](O)[C@H](N)[C@H]1O [Amikacin]
- RM R (strains resistant by reference method) ([1]; CLSI): 27
- RM S (strains susceptible by reference method) ([1]; CLSI): 316
- RM R (strains resistant by reference method) ([1]; EUCAST): 30
- RM S (strains susceptible by reference method) ([1]; EUCAST): 313
- CLSI RM R [1, 3]: 25
- CLSI RM R [1, 4]: 1
- CLSI RM R [1, 5]: 1
- EUCAST RM R [1, 6]: 27
- EUCAST RM R [1, 7]: 1
- EUCAST RM R [1, 8]: 2
- CLSI RM S [1, 3]: 158
- CLSI RM S [1, 4]: 77
- CLSI RM S [1, 5]: 81
- EUCAST RM S [1, 6]: 156
- EUCAST RM S [1, 7]: 77
- EUCAST RM S [1, 8]: 80

Molecule: CC1(C)S[C@@H]2[C@H](NC(=O)[C@H](N)c3ccccc3)C(=O)N2[C@H]1C(=O)O [Ampicillin]
- RM I (strains intermediate by reference method) ([1]; CLSI): 1
- RM R (strains resistant by reference method) ([1]; CLSI): 164
- RM S (strains susceptible by reference method) ([1]; CLSI): 66
- RM R (strains resistant by reference method) ([1]; EUCAST): 165
- RM S (strains susceptible by reference method) ([1]; EUCAST): 66
- CLSI RM I [1, 4]: 1
- CLSI RM R [1, 3]: 67
- CLSI RM R [1, 4]: 53
- CLSI RM R [1, 5]: 44
- EUCAST RM R [1, 6]: 67
- EUCAST RM R [1, 7]: 54
- EUCAST RM R [1, 8]: 44
- CLSI RM S [1, 3]: 14
- CLSI RM S [1, 4]: 20
- CLSI RM S [1, 5]: 32
- EUCAST RM S [1, 6]: 14
- EUCAST RM S [1, 7]: 20
- EUCAST RM S [1, 8]: 32
- RM R (strains resistant by reference method) [2, 9]: 23
- RM S (strains susceptible by reference method) [2, 9]: 42
- RM R (strains resistant by reference method) [2, 10]: 38
- RM S (strains susceptible by reference method) [2, 10]: 61
- RM R (strains resistant by reference method) [2, 11]: 23
- RM S (strains susceptible by reference method) [2, 11]: 42
- RM I (strains intermediate by reference method) [2, 12]: 2
- RM R (strains resistant by reference method) [2, 12]: 38
- RM S (strains susceptible by reference method) [2, 12]: 59
- EUCAST RM I [2, 13]: 2
- CLSI RM R [2, 14]: 10
- CLSI RM R [2, 5]: 5
- EUCAST RM R [2, 13]: 10
- EUCAST RM R [2, 8]: 5
- CLSI RM S [2, 14]: 12
- CLSI RM S [2, 5]: 7
- EUCAST RM S [2, 13]: 10
- EUCAST RM S [2, 8]: 7

Molecule: CO/N=C(\C(=O)N[C@@H]1C(=O)N2C(C(=O)O)=C(COC(C)=O)CS[C@H]12)c1csc(N)n1 [Cefotaxime]
- RM R (strains resistant by reference method) ([1]; CLSI): 75
- RM S (strains susceptible by reference method) ([1]; CLSI): 156
- RM R (strains resistant by reference method) ([1]; EUCAST): 75
- RM S (strains susceptible by reference method) ([1]; EUCAST): 156
- CLSI RM R [1, 3]: 54
- CLSI RM R [1, 4]: 13
- CLSI RM R [1, 5]: 8
- EUCAST RM R [1, 6]: 54
- EUCAST RM R [1, 7]: 13
- EUCAST RM R [1, 8]: 8
- CLSI RM S [1, 3]: 27
- CLSI RM S [1, 4]: 61
- CLSI RM S [1, 5]: 68
- EUCAST RM S [1, 6]: 27
- EUCAST RM S [1, 7]: 61
- EUCAST RM S [1, 8]: 68

Molecule: CO[C@@]1(NC(=O)Cc2cccs2)C(=O)N2C(C(=O)O)=C(COC(N)=O)CS[C@@H]21 [Cefoxitin]
- RM R (strains resistant by reference method) [2, 9]: 17
- RM S (strains susceptible by reference method) [2, 9]: 26
- RM R (strains resistant by reference method) [2, 10]: 52
- RM S (strains susceptible by reference method) [2, 10]: 48
- RM R (strains resistant by reference method) [2, 11]: 17
- RM S (strains susceptible by reference method) [2, 11]: 26
- RM R (strains resistant by reference method) [2, 12]: 52
- RM S (strains susceptible by reference method) [2, 12]: 48
- CLSI RM R [2, 14]: 9
- CLSI RM R [2, 5]: 26
- EUCAST RM R [2, 13]: 9
- EUCAST RM R [2, 8]: 26
- CLSI RM S [2, 14]: 13
- CLSI RM S [2, 5]: 9
- EUCAST RM S [2, 13]: 13
- EUCAST RM S [2, 8]: 9

Molecule: C[C@@H](O)[C@H]1C(=O)N2C(C(=O)O)=C(SCCN=CN)C[C@H]12 [Imipenem]
- RM I (strains intermediate by reference method) [2, 11]: 39
- RM R (strains resistant by reference method) [2, 11]: 26
- EUCAST RM I [2, 13]: 12
- EUCAST RM R [2, 13]: 1

Molecule: CC(=O)NC[C@H]1CN(c2ccc(N3CCOCC3)c(F)c2)C(=O)O1 [Linezolid]
- RM R (strains resistant by reference method) [2, 9]: 3
- RM S (strains susceptible by reference method) [2, 9]: 128
- RM R (strains resistant by reference method) [2, 10]: 5
- RM S (strains susceptible by reference method) [2, 10]: 298
- RM R (strains resistant by reference method) [2, 11]: 3
- RM S (strains susceptible by reference method) [2, 11]: 128
- RM R (strains resistant by reference method) [2, 12]: 5
- RM S (strains susceptible by reference method) [2, 12]: 298
- CLSI RM R [2, 5]: 2
- EUCAST RM R [2, 8]: 2
- CLSI RM S [2, 14]: 68
- CLSI RM S [2, 5]: 102
- EUCAST RM S [2, 13]: 68
- EUCAST RM S [2, 8]: 102

Molecule: Cc1onc(-c2ccccc2)c1C(=O)N[C@@H]1C(=O)N2[C@@H]1SC(C)(C)[C@@H]2C(=O)O [Oxacillin]
- RM R (strains resistant by reference method) [2, 9]: 19
- RM S (strains susceptible by reference method) [2, 9]: 4
- RM R (strains resistant by reference method) [2, 10]: 74
- RM S (strains susceptible by reference method) [2, 10]: 14
- RM R (strains resistant by reference method) [2, 11]: 19
- RM S (strains susceptible by reference method) [2, 11]: 4
- RM R (strains resistant by reference method) [2, 12]: 74
- RM S (strains susceptible by reference method) [2, 12]: 14
- CLSI RM R [2, 14]: 19
- CLSI RM R [2, 5]: 36
- EUCAST RM R [2, 13]: 19
- EUCAST RM R [2, 8]: 36
- CLSI RM S [2, 14]: 5
- CLSI RM S [2, 5]: 5
- EUCAST RM S [2, 13]: 5
- EUCAST RM S [2, 8]: 5

Molecule: Amoxacillin-clavulanic acid
- RM I (strains intermediate by reference method) ([1]; CLSI): 14
- RM R (strains resistant by reference method) ([1]; CLSI): 107
- RM S (strains susceptible by reference method) ([1]; CLSI): 110
- RM R (strains resistant by reference method) ([1]; EUCAST): 125
- RM S (strains susceptible by reference method) ([1]; EUCAST): 106
- CLSI RM I [1, 3]: 5
- CLSI RM I [1, 4]: 9
- CLSI RM R [1, 3]: 56
- CLSI RM R [1, 4]: 19
- CLSI RM R [1, 5]: 32
- EUCAST RM R [1, 6]: 62
- EUCAST RM R [1, 7]: 30
- EUCAST RM R [1, 8]: 33
- CLSI RM S [1, 3]: 20
- CLSI RM S [1, 4]: 46
- CLSI RM S [1, 5]: 44
- EUCAST RM S [1, 6]: 19
- EUCAST RM S [1, 7]: 44
- EUCAST RM S [1, 8]: 43

Molecule: Ceftazidime-avibactam
- RM R (strains resistant by reference method) ([1]; CLSI): 8
- RM S (strains susceptible by reference method) ([1]; CLSI): 307
- RM R (strains resistant by reference method) ([1]; EUCAST): 8
- RM S (strains susceptible by reference method) ([1]; EUCAST): 307
- CLSI RM R [1, 3]: 8
- CLSI RM R [1, 4]: 1
- EUCAST RM R [1, 6]: 8
- CLSI RM S [1, 3]: 145
- CLSI RM S [1, 4]: 81
- CLSI RM S [1, 5]: 81
- EUCAST RM S [1, 6]: 145
- EUCAST RM S [1, 7]: 81
- EUCAST RM S [1, 8]: 81

Molecule: Gentamicin [Gentamicin high level]
- RM R (strains resistant by reference method) [2, 9]: 12
- RM S (strains susceptible by reference method) [2, 9]: 35
- RM R (strains resistant by reference method) [2, 10]: 15
- RM S (strains susceptible by reference method) [2, 10]: 51
- RM R (strains resistant by reference method) [2, 11]: 12
- RM S (strains susceptible by reference method) [2, 11]: 35
- RM R (strains resistant by reference method) [2, 12]: 15
- RM S (strains susceptible by reference method) [2, 12]: 51
- CLSI RM R [2, 14]: 2
- CLSI RM R [2, 5]: 1
- EUCAST RM R [2, 13]: 2
- EUCAST RM R [2, 8]: 1
- CLSI RM S [2, 14]: 10
- CLSI RM S [2, 5]: 6
- EUCAST RM S [2, 13]: 10
- EUCAST RM S [2, 8]: 6

— patent US20250154554A1, “ANTIMICROBIAL SUSCEPTIBILITY” (priority 2022, published 2025)
